Measurements published in publication PMC7763331, “First Evidence of a Protective Effect of Plant Bioactive Compounds against H2O2-Induced Aconitase Damage in Durum Wheat Mitochondria” (Antioxidants, 2020).
Blank lines part the entries; values can stand above or below the molecule they belong to.

Experiments:
[1] = test system: T1, DWM-aconitase; conditions: 100 mM Tris-HCl pH 8.0, 0.1% Triton X-100, 25 °C, 1 mM NADP+, 5 mM MnCl2; citrate 0.5–20 mM; lysed mitochondria
T1 construct: gene ACO

[2] = target: T2, m-aconitase (Sus scrofa, UniProt P16276); experiment: aconitase/isocitrate dehydrogenase coupled assay, NADPH absorbance at […] nm; assay type: biochemical; conditions: pH 8.0, 25 °C, 20 mM citrate; 10 min pre-incubation, no H2O2; activator, upper limit (up to about)
T2 construct: gene ACO2
T2 sequence (P16276 28-781): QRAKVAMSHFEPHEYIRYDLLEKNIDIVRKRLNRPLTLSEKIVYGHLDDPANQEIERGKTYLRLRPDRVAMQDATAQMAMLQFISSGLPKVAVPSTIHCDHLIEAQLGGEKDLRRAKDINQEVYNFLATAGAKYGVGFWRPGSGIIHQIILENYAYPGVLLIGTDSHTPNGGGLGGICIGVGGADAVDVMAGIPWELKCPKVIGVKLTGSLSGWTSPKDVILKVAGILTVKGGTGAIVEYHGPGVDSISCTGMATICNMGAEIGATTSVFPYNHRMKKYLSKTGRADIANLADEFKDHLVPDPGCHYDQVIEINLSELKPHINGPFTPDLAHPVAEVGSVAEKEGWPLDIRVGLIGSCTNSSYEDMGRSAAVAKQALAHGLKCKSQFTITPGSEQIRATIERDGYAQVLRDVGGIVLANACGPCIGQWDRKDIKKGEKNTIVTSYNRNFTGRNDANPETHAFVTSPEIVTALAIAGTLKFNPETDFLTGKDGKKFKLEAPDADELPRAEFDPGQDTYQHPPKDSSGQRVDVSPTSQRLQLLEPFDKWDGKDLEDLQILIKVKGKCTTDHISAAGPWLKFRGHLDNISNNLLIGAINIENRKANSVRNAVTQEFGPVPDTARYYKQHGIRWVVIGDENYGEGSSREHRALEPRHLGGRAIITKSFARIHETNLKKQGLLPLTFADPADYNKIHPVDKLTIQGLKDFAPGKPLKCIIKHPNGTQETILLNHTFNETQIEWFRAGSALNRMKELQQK

[3] = target: T2, m-aconitase; experiment: as above; assay type: biochemical; conditions: pH 8.0, 25 °C, 20 mM citrate; 10 min pre-incubation, no H2O2; activator, upper limit (up to about); remark: listed apart in the source
[4] = target: T2, m-aconitase; experiment: as above; assay type: biochemical; conditions: pH 8.0, 25 °C, 20 mM citrate; 10 min pre-incubation, no H2O2; activator

Structure (SMILES): O=C(O)CC(O)(CC(=O)O)C(=O)O [citrate]
Km [1]: 4.8 ± 0.9 mM

Structure (SMILES): O=c1c(O)c(-c2ccc(O)c(O)c2)oc2cc(O)cc(O)c12 [quercetin]
% activation at 150 μM [2]: ~ 20%

% activation at 100-150 μM [3]: ~ 10%
Structure (SMILES): COc1cc(/C=C/C(=O)O)ccc1O [ferulic acid]

% activation at 50-150 μM [4]: ~ 10%
Structure (SMILES): O=c1cc(-c2ccc(O)cc2)oc2cc(O)cc(O)c12 [apigenin]
